{
  "source": "patent US20220056037A1",
  "about": "(SPV THERAPEUTICS INC., priority 2018, published 2022)",
  "key": {"BXF 5637": {"tested_on": "BXF 5637", "assay": "2D cell proliferation assay (CellTiter-Blue)", "format": "cell-based", "conditions": "72 h; cell line BXF 5637; three days of treatment; read-out: IC (abs. IC50)", "experimental": "(§1) Viability of the cells was analyzed by using the CellTiter-Blue® Cell Viability Assay (Promega), and was performed according to manufacturer's instructions. Briefly, cells were harvested from exponential phase cultures (Chapter 6.6), counted and plated in 96-well flat-bottom microtiter plates at a cell density of 4,000-60,000 cells/well in a volume of 140 μl per well. After a 24 hours recovery period, 10 μL cell culture medium (six control wells/plate) or culture medium with test compound were added (Chapter 6.2). The compounds were applied at five concentrations in full-log increments up to 100 μM in duplicate. Cultures were incubated at 37° C. and 5% CO2 in a humidified atmosphere for another three days. After three days of treatment, 20 μl/well CellTiter-Blue® reagent was added. Following incubation with CellTiter-Blue® reagent for up to four hours, fluorescence (FU) was measured by using the Enspire Multimode Plate Reader (excitation λ=570 nm, emission λ=600 nm). For calculations, the mean values of duplicate/sextuplicate (untreated control) data were used.\n(§2) Drug effects were expressed in terms of the percentage of the fluorescence signal, obtained by comparison of the mean signal in the treated wells with the mean signal of the untreated controls (expressed by the test-versus-control value, T/C-value [%]):\n(§3) IC values are reported as relative IC50 values and absolute IC50 and IC70 values. […] The absolute IC70 value gives the concentration of the test compound that achieves T/C=30%. The relative IC50 value is the concentration of test compound that gives a response half way between the top and bottom plateau of the sigmoidal concentration-response curve (inflection point of the curve). Calculation was done by 4parameter non-linear curve fit (Oncotest Data Warehouse Software).\n(§4) If an IC50 or IC70 value could not be determined within the examined dose range (because a compound was either too active or lacked activity), the lowest or highest concentration studied was used for calculation of the geometric mean value.\n(§5) The overall potency of a compound was determined by the geometric mean IC50/IC70 values of all individual IC50/IC70 values. In the heatmap representation of IC50 and IC70 values, the distribution of the IC50 or IC70 values obtained for a test compound in the individual cell lines is given in relation to the geometric mean […] or IC70 value, obtained over all PDX models tested. The individual IC values range from 1/32-fold geometric mean IC (corresponding to very potent compound activity or high tumor sensitivity) to 32-fold geometric mean IC (corresponding to lack of compound activity or tumor resistance). The heatmap presentation, therefore, represents an antiproliferative “fingerprint” profile of a test compound."}, "CNXF U-87 MG": {"tested_on": "CNXF U-87 MG", "assay": "2D cell proliferation assay (CellTiter-Blue)", "format": "cell-based", "conditions": "Homo sapiens, 72 h; cell line CNXF U-87 MG; three days of treatment; read-out: IC (abs. IC50)", "experimental": "as §1, §2, §3, §4, §5"}, "CXF COLO 205": {"tested_on": "CXF COLO 205", "assay": "2D cell proliferation assay (CellTiter-Blue)", "format": "cell-based", "conditions": "Homo sapiens, 72 h; cell line CXF COLO 205; three days of treatment; read-out: IC (abs. IC50)", "experimental": "as §1, §2, §3, §4, §5"}, "CXF HCT-15": {"tested_on": "CXF HCT-15", "assay": "2D cell proliferation assay (CellTiter-Blue)", "format": "cell-based", "conditions": "Homo sapiens, 72 h; cell line CXF HCT-15; three days of treatment; read-out: IC (abs. IC50)", "experimental": "as §1, §2, §3, §4, §5"}, "LIXFH Hep G2": {"tested_on": "LIXFH Hep G2", "assay": "2D cell proliferation assay (CellTiter-Blue)", "format": "cell-based", "conditions": "Homo sapiens, HepG2, 72 h; cell line LIXFH Hep G2; three days of treatment; read-out: IC (abs. IC50)", "experimental": "as §1, §2, §3, §4, §5"}, "LXFA NCI-H1975": {"tested_on": "LXFA NCI-H1975", "assay": "2D cell proliferation assay (CellTiter-Blue)", "format": "cell-based", "conditions": "Homo sapiens, 72 h; cell line LXFA NCI-H1975; three days of treatment; read-out: IC (abs. IC50)", "experimental": "as §1, §2, §3, §4, §5"}, "LXFL NCI-H1299": {"tested_on": "LXFL NCI-H1299", "assay": "2D cell proliferation assay (CellTiter-Blue)", "format": "cell-based", "conditions": "Homo sapiens, 72 h; cell line LXFL NCI-H1299; three days of treatment; read-out: IC (abs. IC50)", "experimental": "as §1, §2, §3, §4, §5"}, "MAXFLB MCF7 (ER +)": {"tested_on": "MAXFLB MCF7 (ER +)", "assay": "2D cell proliferation assay (CellTiter-Blue)", "format": "cell-based", "conditions": "Homo sapiens, 72 h; cell line MAXFLB MCF7 (ER +); three days of treatment; read-out: IC (abs. IC50)", "experimental": "as §1, §2, §3, §4, §5"}, "MAXFTN MDA-MB-231 (ER −)": {"tested_on": "MAXFTN MDA-MB-231 (ER −)", "assay": "2D cell proliferation assay (CellTiter-Blue)", "format": "cell-based", "conditions": "Homo sapiens, 72 h; cell line MAXFTN MDA-MB-231 (ER −); three days of treatment; read-out: IC (abs. IC50)", "experimental": "as §1, §2, §3, §4, §5"}, "MAXFTN ZR-75-1 (ER +)": {"tested_on": "MAXFTN ZR-75-1 (ER +)", "assay": "2D cell proliferation assay (CellTiter-Blue)", "format": "cell-based", "conditions": "Homo sapiens, 72 h; cell line MAXFTN ZR-75-1 (ER +); three days of treatment; read-out: IC (abs. IC50)", "experimental": "as §1, §2, §3, §4, §5"}, "PRXF LNCaP": {"tested_on": "PRXF LNCaP", "assay": "2D cell proliferation assay (CellTiter-Blue)", "format": "cell-based", "conditions": "Homo sapiens, 72 h; cell line PRXF LNCaP; three days of treatment; read-out: IC (abs. IC50)", "experimental": "as §1, §2, §3, §4, §5"}, "UXF MFE-319": {"tested_on": "UXF MFE-319", "assay": "2D cell proliferation assay (CellTiter-Blue)", "format": "cell-based", "conditions": "72 h; cell line UXF MFE-319; three days of treatment; read-out: IC (abs. IC50)", "experimental": "as §1, §2, §3, §4, §5"}, "[1]": {"assay": "Nonclinical pharmacokinetic study, IV and oral, in rats", "description": "Nonclinical pharmacokinetic (PK) parameters of lead CDK4/6/9 inhibitors were determined in an intravenous (IV) and oral study (p.o.) conducted in rats. Lead compounds were each administered as a single oral dose at 100 mg/kg or by IV bolus via the caudal vein at the dose of 30 mg/kg. Blood samples were collected at 0.25, 0.5, 1, 2, 4, 8, 12, and 24 hours post i.v. administration, and at 1, 2, 4, 8, 24 and 48 hours post oral administration. Plasma was processed for drug concentration analysis using a validated LCMS/MS method, and PK parameters were calculated by using WinNonlin."}, "[2]": {"conditions": "rats, oral administration, 100 mg/kg, N = 3"}},
  "note": "pIC50: −log10 of the molar value.",
  "data": [
    {"smiles": "CN1CCN(c2ccc(Nc3ncc4cc(C(=O)N(C)C)n(C56CC(C5)C6)c4n3)cc2)CC1", "note": "[SPV113]", "values": [
      {"measurement": "pIC50", "setting": "BXF 5637", "result": 6.32},
      {"measurement": "pIC50", "setting": "CNXF U-87 MG", "result": 4.00},
      {"measurement": "pIC50", "setting": "CXF COLO 205", "result": 6.83},
      {"measurement": "pIC50", "setting": "CXF HCT-15", "result": 6.69},
      {"measurement": "pIC50", "setting": "LIXFH Hep G2", "result": 6.91},
      {"measurement": "pIC50", "setting": "LXFA NCI-H1975", "result": 6.91},
      {"measurement": "pIC50", "setting": "LXFL NCI-H1299", "result": 5.79},
      {"measurement": "pIC50", "setting": "MAXFLB MCF7 (ER +)", "result": 6.76},
      {"measurement": "pIC50", "setting": "MAXFTN MDA-MB-231 (ER −)", "result": 6.47},
      {"measurement": "pIC50", "setting": "MAXFTN ZR-75-1 (ER +)", "result": 4.90},
      {"measurement": "pIC50", "setting": "PRXF LNCaP", "result": 6.94},
      {"measurement": "pIC50", "setting": "UXF MFE-319", "result": 6.18},
      {"measurement": "Cmax", "setting": "[1]; rat, plasma, iv, 30 mg/kg", "result": 6830, "unit": "ng/mL"},
      {"measurement": "clearance", "setting": "[1]; rat, plasma, iv, 30 mg/kg", "result": 18.7, "unit": "mL/min/kg"},
      {"measurement": "half-life", "setting": "[1]; rat, plasma, iv, 30 mg/kg", "result": 5.73, "unit": "h"},
      {"measurement": "Cmax", "setting": "[1]; rat, plasma, po, 100 mg/kg", "result": 2520, "unit": "ng/mL"},
      {"measurement": "MRT", "setting": "[1]; rat, plasma, po, 100 mg/kg", "result": 25.5, "unit": "h"},
      {"measurement": "BIOAVAILABILITY F", "setting": "[1]; rats, oral 100 mg/kg vs IV bolus 30 mg/kg", "result": 33.3, "unit": "%"},
      {"measurement": "AUC", "setting": "[1]; [2]", "result": 33798, "unit": "ng·h/mL"},
      {"measurement": "T1/2", "setting": "[1]; [2]", "result": 6.0, "unit": "h"}
    ]}
  ]
}
